{"source": "BindingDB's records for doi:10.1016/S0960-894X(01)80421-2", "about": "(1993)", "target": "Chorismate synthase (Escherichia coli) (UniProt P12008)", "sequence (P12008 whole entry, looked up)": "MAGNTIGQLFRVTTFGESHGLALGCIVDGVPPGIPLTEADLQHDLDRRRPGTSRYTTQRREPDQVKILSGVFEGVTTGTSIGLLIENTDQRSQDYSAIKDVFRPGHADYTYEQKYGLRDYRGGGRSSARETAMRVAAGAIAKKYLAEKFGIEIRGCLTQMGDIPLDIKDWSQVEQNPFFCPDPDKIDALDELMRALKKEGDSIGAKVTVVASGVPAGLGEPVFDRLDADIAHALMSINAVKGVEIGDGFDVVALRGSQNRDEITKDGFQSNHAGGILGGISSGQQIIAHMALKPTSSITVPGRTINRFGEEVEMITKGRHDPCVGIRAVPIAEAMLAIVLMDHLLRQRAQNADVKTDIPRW", "test": "Compound was evaluated for the binding affinity towards Escherichia coli chorismate synthase"}
{"smiles": "Cc1cc2nc3c(=O)[nH]c(=O)nc-3n(C[C@H](O)[C@H](O)[C@H](O)COP(=O)(O)O)c2cc1C", "note": "[E101a]", "values": [{"measurement": "Kd", "result": "> 20", "unit": "µM"}]}
